Assay results from patent US7368578B2, “Five-membered heterocyclic compounds” (Takeda Pharmaceutical Company Limited, priority 2002, dated 2008).

SMILES | melting point
COc1cc(COc2nn(-c3ccccc3)cc2C=O)ccc1OCc1nc(-c2ccccc2)oc1C [Example 275, 3-{[3-methoxy-4-(5-methyl-2-phenyl-1,3-oxazol-4-ylmethoxy)benzyl]oxy}-1-phenyl-1H-pyrazole-4-carbaldehyde] | 142 to 143 °C
CCOC(=O)Cc1ccc(-c2nc(COc3ccc(COc4nn(-c5ccccc5)cc4/C=C\c4cncn4CC)cc3OC)c(C)o2)cc1 [Example 340, ethyl {4-[4-({4-[({4-[(Z)-2-(1-ethyl-1H-imidazol-5-yl)ethenyl]-1-phenyl-1H-pyrazol-3-yl}oxy)methyl]-2-methoxyphenoxy}methyl)-5-methyl-1,3-oxazol-2-yl]phenyl}acetate] | 85 to 86 °C
CCOC(=O)c1cn(C)nc1OCc1ccc(OCc2nc(-c3ccccc3)oc2C)c(OC)c1 [Example 264, ethyl 3-{[3-methoxy-4-(5-methyl-2-phenyl-1,3-oxazol-4-ylmethoxy)benzyl]oxy}-1-methyl-1H-pyrazole-4-carboxylate] | 134 to 135 °C
CCOC(=O)/C=C/c1cn(-c2ccccc2)nc1OCc1ccc(OCc2nc(-c3ccco3)oc2C)c(OC)c1 [Example 78, ethyl (2E)-3-{3-[(4-{[2-(2-furyl)-5-methyl-1,3-oxazol-4-yl]methoxy}-3-methoxybenzyl)oxy]-1-phenyl-1H-pyrazol-4-yl}-2-propenoate] | 177 to 178 °C
Cc1oc(-c2ccco2)nc1COc1ccc(COc2nn(-c3ccccc3)cc2C=O)cc1 [Example 85, 3-[(4-{[2-(2-furyl)-5-methyl-1,3-oxazol-4-yl]methoxy}benzyl)oxy]-1-phenyl-1H-pyrazole-4-carbaldehyde] | 148 to 149 °C
COc1cc(COc2nn(Cc3ccccc3)cc2C(C)=O)ccc1OCc1nc(-c2ccco2)oc1C [Example 19, 1-{1-benzyl-3-[(4-{[2-(2-furyl)-5-methyl-1,3-oxazol-4-yl]methoxy}-3-methoxybenzyl)oxy]-1H-pyrazol-4-yl}-1-ethanone] | 144 to 145 °C
CCOC(=O)c1cn(Cc2ccccc2)nc1OCc1cccc(OCc2nc(-c3ccccc3)oc2C)c1 [Example 23, ethyl 1-benzyl-3-({3-[(5-methyl-2-phenyl-1,3-oxazol-4-yl)methoxy]benzyl}oxy)-1H-pyrazole-4-carboxylate] | 95 to 96 °C
COc1cc(COc2nn(-c3ccccc3)cc2CC2=NCCO2)ccc1OCc1nc(-c2ccco2)oc1C [Example 121, 4-{[4-({[4-(4,5-dihydro-1,3-oxazol-2-ylmethyl)-1-phenyl-1H-pyrazol-3-yl]oxy}methyl)-2-methoxyphenoxy]methyl}-2-(2-furyl)-5-methyl-1,3-oxazole] | 95 to 96 °C
CCOC(=O)/C=C/c1cn(CC)nc1OCc1ccc(OCc2nc(-c3ccco3)oc2C)c(OC)c1 [Example 168, ethyl (2E)-3-{1-ethyl-3-[(4-{[2-(2-furyl)-5-methyl-1,3-oxazol-4-yl]methoxy}-3-methoxybenzyl)oxy]-1H-pyrazol-4-yl}-2-propenoate] | 149 to 150 °C
Cc1oc(-c2ccccc2)nc1COc1ccc(COc2nn(-c3ccccc3)cc2CO)cc1 [Example 81, [3-({4-[(2-phenyl-5-methyl-1,3-oxazol-4-yl)methoxy]benzyl}oxy)-1-phenyl-1H-pyrazol-4-yl]methanol] | 118 to 119 °C
CCOC(=O)Cc1ccc(-c2nc(COc3ccc(COc4nn(-c5ccccc5)cc4C=O)cc3OC)c(C)o2)cc1 [Example 246, ethyl (4-{4-[(4-{[(4-formyl-1-phenyl-1H-pyrazol-3-yl)oxy]methyl}-2-methoxyphenoxy)methyl]-5-methyl-1,3-oxazol-2-yl}phenyl)acetate] | 157 to 158 °C
CCc1nc(/C=C\c2cn(-c3ccccc3)nc2OCc2ccc(OCc3nc(N4CCOCC4)sc3C)c(OC)c2)cs1 [Example 232 (Z form), 4-[4-({4-[({4-[(Z)-2-(2-ethyl-1,3-thiazol-4-yl)ethenyl]-1-phenyl-1H-pyrazol-3-yl}oxy)methyl]-2-methoxyphenoxy}methyl)-5-methyl-1,3-thiazol-2-yl]morpholine] | 112 to 114 °C
COc1cc(COc2cc(/C=C/c3cscn3)n(-c3ccccc3)n2)ccc1OCc1nc(-c2ccco2)oc1C [Example 139, 2-(2-furyl)-4-({2-methoxy-4-[({1-phenyl-5-[(E)-2-(1,3-thiazol-4-yl)ethenyl]-1H-pyrazol-3-yl}oxy)methyl]phenoxy}methyl)-5-methyl-1,3-oxazole] | 154 to 155 °C
COC(=O)c1cc(COc2nn(-c3ccccc3)cc2C=O)ccc1OCc1nc(-c2ccco2)oc1C [Example 163, methyl 5-{[(4-formyl-1-phenyl-1H-pyrazol-3-yl)oxy]methyl}-2-{[2-(2-furyl)-5-methyl-1,3-oxazol-4-yl]methoxy}benzoate] | 173 to 174 °C
Cc1oc(-c2ccccc2)nc1COc1ccc(COc2nn(Cc3ccccc3)cc2C=O)cc1 [Example 22, 1-benzyl-3-[{4-[(5-methyl-2-phenyl-1,3-oxazol-4-yl)methoxy]benzyl}oxy]-1H-pyrazole-4-carbaldehyde] | 133 to 134 °C
CCOC(=O)c1cn(Cc2ccccc2)nc1OCc1ccc(OCc2nc(-c3ccco3)oc2C)c(OCC)c1 [Example 29, ethyl 1-benzyl-3-[(3-ethoxy-4-{[2-(2-furyl)-5-methyl-1,3-oxazol-4-yl]methoxy}benzyl)oxy]-1H-pyrazole-4-carboxylate] | 121 to 122 °C
COc1cc(COc2nn(-c3ccccc3)cc2/C=C/c2nc(N3CCCCC3)sc2C)ccc1OCc1nc(-c2ccc(CC(=O)O)cc2)oc1C [Example 383, [4-{4-[(2-methoxy-4-{[(4-{(E)-2-[5-methyl-2-(piperidin-1-yl)-1,3-thiazol-4-yl]ethenyl}-1-phenyl-1H-pyrazol-3-yl)oxy]methyl}phenoxy)methyl]-5-methyl-1,3-oxazol-2-yl}phenyl]acetic acid] | 146 to 148 °C
CCOC(=O)Cc1ccc(-c2nc(COc3ccc(COc4nn(-c5ccccc5)cc4/C=C/c4cncn4CC)cc3OC)c(C)o2)cc1 [Example 340, ethyl {4-[4-({4-[({4-[(E)-2-(1-ethyl-1H-imidazol-5-yl)ethenyl]-1-phenyl-1H-pyrazol-3-yl}oxy)methyl]-2-methoxyphenoxy)methyl)-5-methyl-1,3-oxazol-2-yl]phenyl}acetate] | 134 to 135 °C
COc1cc(COc2nn(Cc3ccccc3)cc2CO)ccc1OCc1nc(-c2ccco2)oc1C [Example 15, (1-benzyl-3-[(4-{[2-(2-furyl)-5-methyl-1,3-oxazol-4-yl]methoxy)-3-methoxybenzyl)oxy]-1H-pyrazol-4-yl}methanol] | 104 to 105 °C
CCOC(=O)Cc1cccc(-c2nc(COc3ccc(COc4nn(-c5ccccc5)cc4C=O)cc3OC)c(C)o2)c1 [Example 253, ethyl (3-{4-[(4-{[(4-formyl-1-phenyl-1H-pyrazol-3-yl)oxy]methyl}-2-methoxyphenoxy)methyl]-5-methyl-1,3-oxazol-2-yl}phenyl)acetate] | 145 to 146 °C
COc1cc(COc2nn(-c3ccccc3)cc2C=O)ccc1OCc1nc(-c2cccnc2)oc1C [Example 227, 3-({3-methoxy-4-[(5-methyl-2-pyridin-3-yl-1,3-oxazol-4-yl)methoxy]benzyl}oxy)-1-phenyl-1H-pyrazole-4-carbaldehyde] | 161 to 162 °C
COc1cc(C(=O)Nc2nn(-c3ccccc3)cc2C=O)ccc1OCc1nc(-c2ccccc2)oc1C [Example 245, N-(4-formyl-1-phenyl-1H-pyrazol-3-yl)-3-methoxy-4-[(5-methyl-2-phenyl-1,3-oxazol-4-yl)methoxy]benzamide] | 234 to 235 °C
COc1cc(CC(=O)Nc2nn(-c3ccccc3)cc2C=O)ccc1OCc1nc(-c2ccccc2)oc1C [Example 277, N-(4-formyl-1-phenyl-1H-pyrazol-3-yl)-2-{3-methoxy-4-[(5-methyl-2-phenyl-1,3-oxazol-4-yl)methoxy]phenyl}acetamide] | 156 to 158 °C
CCOC(=O)c1cn(Cc2ccccc2)nc1OCc1ccc(OCc2nc(-c3ccco3)oc2C)c(C)c1 [Example 60, ethyl 1-benzyl-3-[(4-{[2-(2-furyl)-5-methyl-1,3-oxazol-4-yl]methoxy}-3-methylbenzyl)oxy]-1H-pyrazole-4-carboxylate] | 120 to 121 °C
Cc1oc(-c2ccccc2)nc1COc1ccc(C(=O)Nc2nn(-c3ccccc3)cc2C=O)cc1 [Example 233, N-(4-formyl-1-phenyl-1H-pyrazol-3-yl)-4-[(5-methyl-2-phenyl-1,3-oxazol-4-yl)methoxy]benzamide] | 185 to 186 °C
CCOC(=O)c1cn(Cc2ccccc2)nc1OCc1ccc(OCc2nc(-c3ccccc3)oc2C)c(OC)c1 [Example 1, ethyl 1-benzyl-3-({3-methoxy-4-[(5-methyl-2-phenyl-1,3-oxazol-4-yl)methoxy]benzyl}oxy)-1H-pyrazole-4-carboxylate] | 154 to 155 °C
COc1cc(COc2nn(Cc3ccccc3)cc2CO)ccc1OCc1nc(-c2ccccc2)oc1C [Example 4, [1-benzyl-3-({3-methoxy-4-[(5-methyl-2-phenyl-1,3-oxazol-4-yl)methoxy]benzyl}oxy)-1H-pyrazol-4-yl]methanol] | 90 to 91 °C
CCOC(=O)c1cn(Cc2ccccc2)nc1OCc1ccc(OCc2nc(-c3ccco3)oc2C)c(OC)c1 [Example 12, ethyl 1-benzyl-3-[(4-{[2-(2-furyl)-5-methyl-1,3-oxazol-4-yl]methoxy}-3-methoxybenzyl)oxy]-1H-pyrazole-4-carboxylate] | 117 to 118 °C
CCOP(=O)(/C=C/c1cn(-c2ccccc2)nc1OCc1ccc(OCc2nc(-c3ccco3)oc2C)c(C(=O)OC)c1)OCC | 92 to 93 °C
COc1cc(COc2nn(-c3ccccc3)cc2/C=C/C(=O)O)ccc1OCc1nc(-c2ccco2)oc1C [Example 79, (2E)-3-{3-[(4-{[2-(2-furyl)-5-methyl-1,3-oxazol-4-yl]methoxy}-3-methoxybenzyl)oxy]-1-phenyl-1H-pyrazol-4-yl}-2-propenoic acid] | 204 to 205 °C
